Experimental data taken from patent US4684664A, “Derivatives of β-(4-isocyano-1,2,3,4-diepoxycyclopentyl) acrylic acid” (Kureha Kagaku Kogyo Kabushiki Kaisha, priority 1984, dated 1987).
In brackets after ≈: the same amount, converted by molar mass.

How the values were obtained:
Type in all cases: cell-based
[1] = system: Staphylococcus aureus FDA 209PJc-1; assay: Antibacterial activity, agar-dilution MIC, organism No. 1; details: Staphylococcus aureus, FDA209PJC1; Organism No. 1, bouillon-agar; read-out: Minimum Inhibitory Concentration
Summary of the method: (§1)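 For each organism the specimen was serially diluted into bouillon agar, and inhibition was scored to give the MIC in μg/ml of culture medium.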

[2] = system: Staphylococcus aureus Terajima; assay: Antibacterial activity, agar-dilution MIC, organism No. 2; details: Staphylococcus aureus; Organism No. 2, bouillon-agar; read-out: Minimum Inhibitory Concentration
Summary of the method: as §1

[3] = system: Staphylococcus aureus MS 353; assay: Antibacterial activity, agar-dilution MIC, organism No. 3; details: Staphylococcus aureus, MS353; Organism No. 3, bouillon-agar; read-out: Minimum Inhibitory Concentration
Summary of the method: as §1

[4] = system: Streptococcus pyogenes Cook; assay: Antibacterial activity, agar-dilution MIC, organism No. 4; details: Streptococcus pyogenes; Organism No. 4, bouillon-agar; read-out: Minimum Inhibitory Concentration
Summary of the method: as §1

[5] = system: Escherichia coli NIHJ-JC-2; assay: Antibacterial activity, agar-dilution MIC, organism No. 5; details: Escherichia coli, NIHJJC2; Organism No. 5, bouillon-agar; read-out: Minimum Inhibitory Concentration
Summary of the method: as §1

[6] = system: Escherichia coli K12 C600 IAM 1264; assay: Antibacterial activity, agar-dilution MIC, organism No. 6; details: Escherichia coli, IAM1264; Organism No. 6, bouillon-agar; read-out: Minimum Inhibitory Concentration
Summary of the method: as §1

[7] = system: Klebsiella pneumoniae PCI-602; assay: Antibacterial activity, agar-dilution MIC, organism No. 7; details: Klebsiella pneumoniae, PCI602; Organism No. 7, bouillon-agar; read-out: Minimum Inhibitory Concentration
Summary of the method: as §1

[8] = system: Salmonella typhimurium IID 971; assay: Antibacterial activity, agar-dilution MIC, organism No. 8; details: Salmonella enterica; Organism No. 8, bouillon-agar; read-out: Minimum Inhibitory Concentration
Summary of the method: as §1

Salmonella typhi 901 = assay: Antibacterial activity, agar-dilution MIC, organism No. 9; details: Salmonella enterica, TYPHI, read-out: Minimum Inhibitory Concentration
Summary of the method: as §1

[9] = system: Salmonella paratyphi-A 1015; assay: Antibacterial activity, agar-dilution MIC, organism No. 10; details: Salmonella enterica, PARATYPHI, read-out: Minimum Inhibitory Concentration
Summary of the method: as §1

[10] = system: Salmonella shottmuelleri 8006; assay: Antibacterial activity, agar-dilution MIC, organism No. 11; details: Salmonella, 8006; Organism No. 11, bouillon-agar; read-out: Minimum Inhibitory Concentration
Summary of the method: as §1

[11] = system: Salmonella enteritidis G 14; assay: Antibacterial activity, agar-dilution MIC, organism No. 12; details: Salmonella enterica, ENTERITIDIS; Organism No. 12, bouillon-agar; read-out: Minimum Inhibitory Concentration
Summary of the method: as §1

[12] = system: Serratia marcescens IAM 1184; assay: Antibacterial activity, agar-dilution MIC, organism No. 13; details: Serratia marcescens, IAM1184; Organism No. 13, bouillon-agar; read-out: Minimum Inhibitory Concentration
Summary of the method: as §1

[13] = system: Bacillus subtilis ATCC 6633; assay: Antibacterial activity, agar-dilution MIC, organism No. 14; details: Bacillus subtilis, ATCC6633; Organism No. 14, bouillon-agar; read-out: Minimum Inhibitory Concentration
Summary of the method: as §1

[14] = system: Pseudomonas aeruginosa IFO 3445; assay: Antibacterial activity, agar-dilution MIC, organism No. 15; details: Pseudomonas aeruginosa, IFO3445; Organism No. 15, bouillon-agar; read-out: Minimum Inhibitory Concentration
Summary of the method: as §1

[15] = system: Pseudomonas aeruginosa NCTC 10490; assay: Antibacterial activity, agar-dilution MIC, organism No. 16; details: Pseudomonas aeruginosa, NCTC10490; Organism No. 16, bouillon-agar; read-out: Minimum Inhibitory Concentration
Summary of the method: as §1

[16] = system: Pseudomonas aeruginosa PAO 1; assay: Antibacterial activity, agar-dilution MIC, organism No. 17; details: Pseudomonas aeruginosa, PAO1; Organism No. 17, bouillon-agar; read-out: Minimum Inhibitory Concentration
Summary of the method: as §1

[17] = system: Proteus morganii IFO 3848; assay: Antibacterial activity, agar-dilution MIC, organism No. 18; details: Morganella morganii, IFO3848; Organism No. 18, bouillon-agar; read-out: Minimum Inhibitory Concentration
Summary of the method: as §1

[18] = system: Proteus mirabilis IFO 3849; assay: Antibacterial activity, agar-dilution MIC, organism No. 19; details: Proteus mirabilis, IFO3849; Organism No. 19, bouillon-agar; read-out: Minimum Inhibitory Concentration
Summary of the method: as §1

Proteus vulgaris OX-19 = assay: Antibacterial activity, agar-dilution MIC, organism No. 20; details: Proteus vulgaris, OX19; Organism No. 20, bouillon-agar; read-out: Minimum Inhibitory Concentration
Summary of the method: as §1

Proteus vulgaris HX-19 = assay: Antibacterial activity, agar-dilution MIC, organism No. 21; details: Proteus vulgaris, HX19; Organism No. 21, bouillon-agar; read-out: Minimum Inhibitory Concentration
Summary of the method: as §1

[19] = system: Proteus rettgeri IFO 3850; assay: Antibacterial activity, agar-dilution MIC, organism No. 22; details: Providencia rettgeri, IFO3850; Organism No. 22, bouillon-agar; read-out: Minimum Inhibitory Concentration
Summary of the method: as §1

[20] = system: Enterobacter aerogenes ATCC 13048; assay: Antibacterial activity, agar-dilution MIC, organism No. 23; details: Klebsiella aerogenes, ATCC13048; Organism No. 23, bouillon-agar; read-out: Minimum Inhibitory Concentration
Summary of the method: as §1

Enterobacter cloacae 963 = assay: Antibacterial activity, agar-dilution MIC, organism No. 24; details: Enterobacter cloacae, 963; Organism No. 24, bouillon-agar; read-out: Minimum Inhibitory Concentration
Summary of the method: as §1

[21] = system: Micrococcus luteus ATCC 9341; assay: Antibacterial activity, agar-dilution MIC, organism No. 25; details: Micrococcus luteus, ATCC9341; Organism No. 25, bouillon-agar; read-out: Minimum Inhibitory Concentration
Summary of the method: as §1

[22] = system: Streptococcus pyogenes IFO 3340; assay: Antibacterial activity, agar-dilution MIC, organism No. 26; details: Streptococcus pyogenes, IFO3340; Organism No. 26, bouillon-agar; read-out: Minimum Inhibitory Concentration
Summary of the method: as §1

[23] = system: Streptococcus faecium IFO 3826; assay: Antibacterial activity, agar-dilution MIC, organism No. 27; details: Enterococcus faecium, IFO3826; Organism No. 27, bouillon-agar; read-out: Minimum Inhibitory Concentration
Summary of the method: as §1

[24] = system: Mycoplasma pneumoniae IID817; assay: Antimycoplasmal activity, MIC by phenol red colour change, organism No. 28; details: Mycoplasma, IID817; Organism No. 28, PPLO broth + 1% glucose, 37° C.; read-out: Minimum Inhibitory Concentration (MIC)
Description: Mycoplasma pneumoniae IID817 was used as the test microorganism in a culture medium prepared by adding 1% of glucose to "PPLO broth (manufactured by Difco Co.) liquid culture medium" at 37° C. with phenol red as an indicator, thereby culturing the test microorganism.

[25] = system: Candida albicans IAM 4905; assay: Antifungal activity, agar-dilution MIC, organism No. 29; details: Candida albicans, IAM4905; Organism No. 29, bouillon-agar; read-out: Minimum Inhibitory Concentration
Summary of the method: as §1

[26] = system: Aspergillus niger IFO 6342; assay: Antifungal activity, agar-dilution MIC, organism No. 30; details: Aspergillus niger, IFO6342; Organism No. 30, bouillon-agar; read-out: Minimum Inhibitory Concentration
Summary of the method: as §1

Compound | MIC [1] | MIC [2] | MIC [3] | MIC [4] | MIC [5] | MIC [6] | MIC [7] | MIC [8] | MIC (Salmonella typhi 901) | MIC [9] | MIC [10] | MIC [11] | MIC [12] | MIC [13] | MIC [14] | MIC [15] | MIC [16] | MIC [17] | MIC [18] | MIC (Proteus vulgaris OX-19) | other results
[C-]#[N+]C12CC3(/C=C/C(=O)NC4CCCCC4)OC3C1O2 (stereo not drawn) [compound 20] | 1.56 µg/mL (≈ 5.69 µM) | 12.5 µg/mL (≈ 45.6 µM) | 1.56 µg/mL (≈ 5.69 µM) | 6.25 µg/mL (≈ 22.8 µM) | > 200 µg/mL | > 200 µg/mL | 0.39 µg/mL (≈ 1.42 µM) | 100 µg/mL (≈ 365 µM) | 6.25 µg/mL (≈ 22.8 µM) | 6.25 µg/mL (≈ 22.8 µM) | 3.13 µg/mL (≈ 11.4 µM) | 12.5 µg/mL (≈ 45.6 µM) | > 200 µg/mL | 50 µg/mL (≈ 182 µM) | > 200 µg/mL | > 200 µg/mL | > 200 µg/mL | 0.78 µg/mL (≈ 2.84 µM) | > 200 µg/mL | 0.78 µg/mL (≈ 2.84 µM) | MIC (Proteus vulgaris HX-19): 0.1 µg/mL (≈ 0.365 µM); MIC [19]: > 200 µg/mL; MIC [20]: > 200 µg/mL; MIC (Enterobacter cloacae 963): > 200 µg/mL; MIC [21]: < 0.05 µg/mL; MIC [22]: 6.25 µg/mL (≈ 22.8 µM); MIC [23]: 12.5 µg/mL (≈ 45.6 µM); MIC [24]: < 0.2 µg/mL; MIC [25]: 1.56 µg/mL (≈ 5.69 µM); MIC [26]: 6.25 µg/mL (≈ 22.8 µM)
[C-]#[N+]C12CC3(/C=C/C(=O)N4CCCC4)OC3C1O2 (stereo not drawn) [compound 21] | 50 µg/mL (≈ 203 µM) | 100 µg/mL (≈ 406 µM) | 50 µg/mL (≈ 203 µM) | 100 µg/mL (≈ 406 µM) | > 200 µg/mL | > 200 µg/mL | 50 µg/mL (≈ 203 µM) | 100 µg/mL (≈ 406 µM) | 50 µg/mL (≈ 203 µM) | 100 µg/mL (≈ 406 µM) | 50 µg/mL (≈ 203 µM) | 50 µg/mL (≈ 203 µM) | > 200 µg/mL | 200 µg/mL (≈ 812 µM) | > 200 µg/mL | > 200 µg/mL | > 200 µg/mL | 50 µg/mL (≈ 203 µM) | > 200 µg/mL | 25 µg/mL (≈ 102 µM) | MIC (Proteus vulgaris HX-19): 1.56 µg/mL (≈ 6.33 µM); MIC [19]: > 200 µg/mL; MIC [20]: > 200 µg/mL; MIC (Enterobacter cloacae 963): > 200 µg/mL; MIC [21]: 0.39 µg/mL (≈ 1.58 µM); MIC [22]: > 200 µg/mL; MIC [23]: > 200 µg/mL; MIC [24]: 1.56 µg/mL; MIC [25]: 6.25 µg/mL (≈ 25.4 µM); MIC [26]: 3.13 µg/mL (≈ 12.7 µM)
[C-]#[N+]C12CC3(/C=C/C(=O)N4CCOCC4)OC3C1O2 (stereo not drawn) [compound 22] | 50 µg/mL (≈ 191 µM) | 100 µg/mL (≈ 381 µM) | 50 µg/mL (≈ 191 µM) | 50 µg/mL (≈ 191 µM) | 50 µg/mL (≈ 191 µM) | 50 µg/mL (≈ 191 µM) | 50 µg/mL (≈ 191 µM) | 25 µg/mL (≈ 95.3 µM) | 6.25 µg/mL (≈ 23.8 µM) | 25 µg/mL (≈ 95.3 µM) | 25 µg/mL (≈ 95.3 µM) | 12.5 µg/mL (≈ 47.7 µM) | > 200 µg/mL | 200 µg/mL (≈ 763 µM) | > 200 µg/mL | > 200 µg/mL | > 200 µg/mL | 6.25 µg/mL (≈ 23.8 µM) | > 200 µg/mL | 12.5 µg/mL (≈ 47.7 µM) | MIC (Proteus vulgaris HX-19): 1.56 µg/mL (≈ 5.95 µM); MIC [19]: > 200 µg/mL; MIC [20]: > 200 µg/mL; MIC (Enterobacter cloacae 963): > 200 µg/mL; MIC [21]: 0.39 µg/mL (≈ 1.49 µM); MIC [22]: 200 µg/mL (≈ 763 µM); MIC [23]: > 200 µg/mL; MIC [24]: 1.56 µg/mL; MIC [25]: 6.25 µg/mL (≈ 23.8 µM); MIC [26]: 3.13 µg/mL (≈ 11.9 µM)
